Each block holds one compound with its values, some of them ahead of it.
Key:
L1210 cells = assay: L1210 murine leukemia cell growth inhibition in vitro; assay type: cell-based; conditions: Mus musculus, 72 h, Table 1, three days incubation, 50% inhibition of growth, read-out: L1210 in vitro ID50
Method in brief: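 Murine L1210 leukemia cells (3 x 10^4 cells/ml) in RPMI 1640 with 5% FBS were exposed to drug dilutions for 3 days at 37 °C and 5% CO2. Cells were then Coulter-counted, growth was expressed relative to solvent and medium controls, and ID50 was given in mol/L.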

HCT-8 cells = assay: in vitro proliferating human colon adenocarcinoma (HCA) cell screen; assay type: cell-based; conditions: Table 1, 60 to 65 hours with compound, 50% inhibition of growth, read-out: HCA—3 in vitro ID50
Method in brief: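 HCT-8 cells grown 48 h at 37 °C in RPMI 1640/10% FCS, then exposed to compound for a further 60–65 h. Nuclei counted by Coulter counter after lysis; percent growth per concentration gives ID50 as molar concentration causing 50% growth inhibition.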

[1] = system: lymphocytic leukemia P388; assay: in vivo lymphocytic leukemia P388 test; parameters: species or system mice; conditions: Mus musculus, P388, ip, 120 h, read-out: P388 in vivo T/C × 100; for response vs control in vivo at 6.25 mg/kg: Dose 6.25 mg/kg intraperitoneally once daily for five days; for response vs control in vivo at 12.5 mg/kg: Dose 12.50 mg/kg intraperitoneally once daily for five days
Method in brief: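 CD2F mice, 6-7 per group, inoculated IP with P388 leukemia ascitic cells, then dosed IP once daily for five consecutive days at various doses. Survival and weights tracked for 30 days; activity expressed as treated/control survival time ×100, with ≥125 as efficacy criterion. Deaths of all animals within four days flagged as toxic.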

[2] = system: Aerobacter aerogenes 0126; assay: in vitro antibacterial/antifungal (ABF) agar-disk diffusion test; assay type: cell-based; conditions: Klebsiella aerogenes, read-out: ABF Zone Diameter (cont. in mg/ml) A. Aero-genes
Bacillus subtilis 04555 = assay: as above; assay type: cell-based; conditions: 0.5 mg/ml, read-out: ABF Zone Diameter (cont. in mg/ml) B. Sub-tilis
Escherichia coli 04863 = assay: as above; assay type: cell-based; conditions: read-out: ABF Zone Diameter (cont. in mg/ml) E. Coli
[3] = system: Penicillium avellaneum M2988; assay: as above; assay type: cell-based; conditions: Hamigera avellanea, 3 mg/ml, read-out: ABF Zone Diameter (cont. in mg/ml) P. Avell-aneum
[4] = system: Streptococcus faecalis 05045; assay: as above; assay type: cell-based; conditions: Enterococcus faecalis, AM-09 medium, read-out: ABF Zone Diameter (cont. in mg/ml) S. Fae-calis

IC50 (L1210 cells): 400 nM | IC50 (HCT-8 cells): 480 nM
Compound: OCCNCCNc1ccc2c3c(nn2CCNCCO)-c2ccccc2Sc13 [CH2CH2NHCH2CH2OH / NHCH2CH2NHCH2CH2OH, 2-[[2-[5-[[2-[(2-Hydroxyethyl)amino]ethyl]amino]-2H[1]benzothiopyrano[4,3,2-cd]indazol-2-yl]ethyl]amino]ethanol]
response vs control in vivo at 0.75 mg/kg ([1]; Dose 0.75 mg/kg intraperitoneally once daily for five days): 146% | response vs control in vivo at 0.78 mg/kg ([1]; Dose 0.78 mg/kg intraperitoneally once daily for five days): 153% | response vs control in vivo at 1.5 mg/kg ([1]; Dose 1.50 mg/kg intraperitoneally once daily for five days): 155% | response vs control in vivo at 1.56 mg/kg ([1]; Dose 1.56 mg/kg intraperitoneally once daily for five days): 180% | response vs control in vivo at 3 mg/kg ([1]; Dose 3.00 mg/kg intraperitoneally once daily for five days): 187% | response vs control in vivo at 3.12 mg/kg ([1]; Dose 3.12 mg/kg intraperitoneally once daily for five days): 176% | response vs control in vivo at 6 mg/kg ([1]; Dose 6.00 mg/kg intraperitoneally once daily for five days): 218% | response vs control in vivo at 6.25 mg/kg [1]: 195% | response vs control in vivo at 12 mg/kg ([1]; Dose 12.00 mg/kg intraperitoneally once daily for five days): 270% | response vs control in vivo at 12.5 mg/kg [1]: 271% | zone of inhibition at 500 µg/mL ([2]; 0.5 mg/ml): 14 mm | zone of inhibition at 500 µg/mL (Bacillus subtilis 04555): 15 mm | zone of inhibition at 500 µg/mL (Escherichia coli 04863; 0.5 mg/ml): 14 mm | zone of inhibition at 3000 µg/mL [3]: 0 mm | zone of inhibition at 3000 µg/mL ([4]; 3 mg/ml): 0 mm

IC50 (L1210 cells): 20 nM | IC50 (HCT-8 cells): 100 nM
Compound: O=[N+]([O-])c1ccc2c3c(nn2CCNCCO)-c2ccccc2Sc13 [CH2CH2NHCH2CH2OH / NO2, 2-[[2-(5-Nitro-2H[1]benzothiopyrano[4,3,2-cd]indazol-2-yl)ethyl]amino]ethano]
response vs control in vivo at 6.25 mg/kg [1]: 148% | response vs control in vivo at 12.5 mg/kg [1]: 150% | response vs control in vivo at 25 mg/kg ([1]; Dose 25.00 mg/kg intraperitoneally once daily for five days): 197% | zone of inhibition at 100 µg/mL ([2]; 0.1 mg/ml): 16 mm | zone of inhibition at 500 µg/mL (Bacillus subtilis 04555): 18 mm | zone of inhibition at 100 µg/mL (Escherichia coli 04863; 0.1 mg/ml): 16 mm | zone of inhibition at 3000 µg/mL [3]: 0 mm | zone of inhibition at 500 µg/mL ([4]; 0.5 mg/ml): 15 mm
